Converted amounts (≈) assume the structure as drawn. Read-outs that look alike come from different tables or passages of the source.
Assays:
E. coli RNA polymerase = E. coli RNA polymerase (Escherichia coli, UniProt P0A8T7+P0A8V2); assay: In vitro transcription assay, E. coli RNA polymerase; assay type: biochemical; conditions: for Relative potency in the in vitro transcription assay using E. coli RNA polymerase: FIGS. 20a,b, comparison in words; for IC50: Table II, in vitro transcription, read-out: IC50 E. coli (source of polymerase) (converted)
Chain of E. coli RNA polymerase (P0A8V2 whole entry): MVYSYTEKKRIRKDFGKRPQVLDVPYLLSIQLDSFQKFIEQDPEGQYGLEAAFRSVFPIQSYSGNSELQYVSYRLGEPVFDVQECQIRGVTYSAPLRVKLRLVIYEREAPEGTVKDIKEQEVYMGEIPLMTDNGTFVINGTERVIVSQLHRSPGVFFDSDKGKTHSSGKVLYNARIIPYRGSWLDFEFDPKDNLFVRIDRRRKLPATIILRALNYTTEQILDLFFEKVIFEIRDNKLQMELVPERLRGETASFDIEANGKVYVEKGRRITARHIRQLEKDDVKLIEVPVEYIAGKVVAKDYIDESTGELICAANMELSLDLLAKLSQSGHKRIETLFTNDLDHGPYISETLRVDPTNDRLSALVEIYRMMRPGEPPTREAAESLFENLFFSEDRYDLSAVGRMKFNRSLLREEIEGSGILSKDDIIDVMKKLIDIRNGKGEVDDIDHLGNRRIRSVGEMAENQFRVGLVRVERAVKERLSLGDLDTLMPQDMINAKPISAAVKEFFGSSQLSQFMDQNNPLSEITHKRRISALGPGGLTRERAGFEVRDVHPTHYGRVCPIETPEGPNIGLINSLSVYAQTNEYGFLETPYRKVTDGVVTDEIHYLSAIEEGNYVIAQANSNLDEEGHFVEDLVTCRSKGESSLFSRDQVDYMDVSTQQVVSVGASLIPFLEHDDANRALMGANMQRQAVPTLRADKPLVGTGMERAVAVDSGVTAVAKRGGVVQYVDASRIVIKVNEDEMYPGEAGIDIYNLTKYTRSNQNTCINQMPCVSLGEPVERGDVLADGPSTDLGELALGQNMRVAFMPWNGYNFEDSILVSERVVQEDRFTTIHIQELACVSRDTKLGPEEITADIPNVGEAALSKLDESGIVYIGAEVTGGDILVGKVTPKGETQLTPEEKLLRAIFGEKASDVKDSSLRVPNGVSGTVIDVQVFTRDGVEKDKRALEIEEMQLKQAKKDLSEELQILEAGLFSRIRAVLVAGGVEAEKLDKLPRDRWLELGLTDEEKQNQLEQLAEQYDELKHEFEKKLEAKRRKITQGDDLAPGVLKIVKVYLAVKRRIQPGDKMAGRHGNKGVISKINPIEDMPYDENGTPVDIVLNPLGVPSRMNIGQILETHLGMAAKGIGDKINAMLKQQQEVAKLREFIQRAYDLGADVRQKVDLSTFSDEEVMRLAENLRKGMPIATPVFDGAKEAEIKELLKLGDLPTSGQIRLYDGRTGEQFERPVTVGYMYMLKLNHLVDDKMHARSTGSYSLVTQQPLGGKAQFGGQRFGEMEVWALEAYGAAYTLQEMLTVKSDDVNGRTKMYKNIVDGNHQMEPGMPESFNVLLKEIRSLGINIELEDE
Chain of E. coli RNA polymerase (P0A8T7 whole entry): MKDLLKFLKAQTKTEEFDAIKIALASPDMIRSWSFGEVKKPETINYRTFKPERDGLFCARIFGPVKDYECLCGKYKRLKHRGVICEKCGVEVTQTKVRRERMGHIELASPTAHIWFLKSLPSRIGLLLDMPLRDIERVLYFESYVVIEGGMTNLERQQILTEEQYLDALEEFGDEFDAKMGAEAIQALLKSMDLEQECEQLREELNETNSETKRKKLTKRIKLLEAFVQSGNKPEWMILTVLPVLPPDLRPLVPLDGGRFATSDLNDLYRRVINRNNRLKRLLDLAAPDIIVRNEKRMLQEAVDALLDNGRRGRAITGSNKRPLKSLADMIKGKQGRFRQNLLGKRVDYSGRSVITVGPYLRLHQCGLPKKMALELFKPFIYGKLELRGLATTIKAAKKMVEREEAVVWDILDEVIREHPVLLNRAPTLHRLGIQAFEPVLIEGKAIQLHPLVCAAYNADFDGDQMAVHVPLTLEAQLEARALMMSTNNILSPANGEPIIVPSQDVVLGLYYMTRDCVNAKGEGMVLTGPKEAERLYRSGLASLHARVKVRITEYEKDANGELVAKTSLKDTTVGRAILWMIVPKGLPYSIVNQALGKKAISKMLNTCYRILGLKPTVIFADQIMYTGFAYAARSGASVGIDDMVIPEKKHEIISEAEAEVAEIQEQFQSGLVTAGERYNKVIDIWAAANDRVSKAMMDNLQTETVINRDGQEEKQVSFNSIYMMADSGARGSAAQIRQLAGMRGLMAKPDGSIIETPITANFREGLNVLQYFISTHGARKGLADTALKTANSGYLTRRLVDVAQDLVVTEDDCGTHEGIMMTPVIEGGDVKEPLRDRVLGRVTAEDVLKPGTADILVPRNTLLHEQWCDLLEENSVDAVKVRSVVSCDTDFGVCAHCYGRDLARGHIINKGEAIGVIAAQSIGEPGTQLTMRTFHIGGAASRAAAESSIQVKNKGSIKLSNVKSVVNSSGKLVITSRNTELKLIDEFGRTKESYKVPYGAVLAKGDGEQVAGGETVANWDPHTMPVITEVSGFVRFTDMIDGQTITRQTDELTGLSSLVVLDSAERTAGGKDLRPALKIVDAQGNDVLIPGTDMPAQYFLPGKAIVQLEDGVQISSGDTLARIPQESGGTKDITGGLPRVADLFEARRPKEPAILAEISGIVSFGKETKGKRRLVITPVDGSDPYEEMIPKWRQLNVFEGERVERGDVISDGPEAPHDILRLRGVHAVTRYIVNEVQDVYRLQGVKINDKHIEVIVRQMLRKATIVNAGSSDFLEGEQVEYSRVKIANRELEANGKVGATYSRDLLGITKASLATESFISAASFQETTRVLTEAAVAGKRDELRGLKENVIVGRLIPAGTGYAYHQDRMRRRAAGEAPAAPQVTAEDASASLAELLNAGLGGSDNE
Chain of E. coli RNA polymerase (P0A7Z4 whole entry partner): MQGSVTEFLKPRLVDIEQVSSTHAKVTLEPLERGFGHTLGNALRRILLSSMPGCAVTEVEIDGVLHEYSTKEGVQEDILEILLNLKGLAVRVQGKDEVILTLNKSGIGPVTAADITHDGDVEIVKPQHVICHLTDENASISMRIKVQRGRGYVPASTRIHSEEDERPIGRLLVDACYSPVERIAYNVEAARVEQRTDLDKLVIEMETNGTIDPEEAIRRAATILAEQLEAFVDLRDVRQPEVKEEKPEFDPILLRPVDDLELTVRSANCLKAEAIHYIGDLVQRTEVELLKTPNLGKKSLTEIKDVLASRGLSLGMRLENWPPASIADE
Chain of E. coli RNA polymerase (P0A800 whole entry partner): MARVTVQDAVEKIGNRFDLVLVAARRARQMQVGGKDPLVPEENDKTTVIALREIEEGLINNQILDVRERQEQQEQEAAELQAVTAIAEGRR
Protocol: (§1) In vitro transcription reactions. [α-^32 P] UTP-incorporated RNA was synthesized in 50 μl reaction volumes containing transcription buffer (50 mM Tris-HCl, pH 8.0, 200 mM KCL, 10 mM MgCl2, 10 mM DTT and 1.5 μM BSA), […] of DNA template, 4 μM UTP containing 5 μl of [α-^32 P] UTP, 400 μM each of ATP, GTP, and CTP. After incubation for 60 minutes at 25 ° C., the reaction is terminated with 100 μl 10% TCA, which also recipitates the newly transcribed RNA.

S. aureus RNAP = S. aureus RNAP (Staphylococcus aureus, UniProt P47768+Q2G0N5); assay: In vitro transcription assay, S. aureus RNAP; assay type: biochemical
Protocol: as §1

S. aureus [1] = assay: MBC, S. aureus; assay type: cell-based; conditions: Staphylococcus aureus, Table II
Excerpt: (§2) The minimum bactericidal concentration (MBC) is defined as the concentration of antimicrobial agent from which no colonies grow on petri plates or in the medium. In practice, the MBC is arbitrarily defined as the concentration at which a 1000-fold reduction in colony forming units is observed with respect to the original inoculum (survival of 0. 1%). The broth dilution method consists of inoculating the wells from an MIC microliter plate using a 96-well inoculation grid into a fresh microliter plate containing 100 μl. Mueller-Hinton broth per well. The MBC plates are incubated at 37° C. for 16-20 hrs and the MBC values are determined.

E. coli [2] = assay: MBC, E. coli; assay type: cell-based; conditions: Escherichia coli
Excerpt: as §2

E. coli [3] = assay: Microdilution MIC, E. coli; assay type: cell-based; conditions: Escherichia coli
Protocol: (§3) Different dilutions are performed for natural product extracts.

Human RNAP = Human RNAP (Homo sapiens, UniProt P24928+P30876); assay: biochemical; conditions: Table II, in vitro transcription; read-out: IC50 human pol II
Protocol: as §1

[4] = test system: myxopyronin-, rifampicin-, and streptolydigin-resistant S. aureus; assay: Growth (optical density at 595 nm) of drug-resistant S. aureus cultured with each drug (FIG. 22); assay type: cell-based; conditions: FIG. 22, absorbance at 595 nm
Protocol: FIG. 22 is a bar graph showing the growth of bacterial cultures, measured by its optical density as measured by absorbance of light at 595 nanometers, after bacteria resistant to myxopyronins, rifampicin, and streptolydigin were cultured in the presence of each of these drugs.
The site of action of the myxopyronins on RNA polymerase was investigated by assessing the growth of myxopyronin-, rifampicin-, and streptolydigin-resistant S. aureus in the presence of the 90/10 myxopyronin A/B mixture.

[5] = test system: rifampicin susceptible and rifampicin resistant strains; assay: microbe, parasite or virus in culture
Protocol: The MIC is reported as a range between the concentration at which no growth is observed and the concentration of the dilution which immediately followed. Selected inhibitors from the RNA polymerase screen described above were tested for their ability to inhibit bacterial growth in a broth microdilution assay as follows. […] Dilution of antimicrobial agents is performed in a sterile, covered 96-well microliter plate with flat bottom wells (Costar #9017), and each well contains 100 μL of both +/-antimicrobial agent. The final concentrations of the small molecule antimicrobial agents are 100, 50, 25, 12.5, 6.25, 3.12, 1.56, 0.78, 0.39, 0.20, 0.10, and 0.05 μg/mL, respectively. Different dilutions are performed for natural product extracts. They are first diluted 100-fold with Mueller-Hinton broth. The final dilutions of the natural product extracts are 200, 400, 800, 1600, 3200, 6400, 12800, 25600, 51200, 1×105, 2×105, and 4 ×105-fold. A 1% DMSO (no-drug) row is prepared in Mueller-Hinton broth as a control for 100% growth on each plate. A Mueller-Hinton broth only with no bacteria growth is also included as a negative control for each plate. Ampicillin and rifampicin are used as positive controls against all bacterial strains in every experiment.
The overnight culture of a single colony is diluted in sterile Mueller-Hinton broth so that, after inoculation, each well contains approximately 5×10^5 CFU/mL. Within 15 minutes of preparation, […] of the adjusted inoculum suspension is added to the microliter plate. Each well is diluted with an equal volume of the antimicrobial agent/control substance diluted with sterile Mueller-Hinton broth. The inoculated microliter plate is incubated at 35° C. for 16-20 hours. The turbidity of each well is determined by measuring the absorbance at 595 nm on the BioRad Model 3550-UV microplate reader. The rows containing broth only (no cells) serve as a control, and the rows containing the titration of 1% DMSO serve as a control for 100% growth. The average of the broth only controls is subtracted from the average of each duplicate. This value is subsequently normalized to the average of the DMSO controls.

M. catarrhalis = assay: MIC, M. catarrhalis; assay type: cell-based; conditions: Moraxella catarrhalis
Protocol: as §3

H. influenzae = assay: MIC, H. influenzae; assay type: cell-based; conditions: Haemophilus influenzae
Protocol: as §3

P. aeruginosa = assay: MIC, P. aeruginosa; assay type: cell-based; conditions: Pseudomonas aeruginosa
Protocol: as §3

S. pneumonia = assay: MIC, S. pneumonia; assay type: cell-based
Protocol: as §3

S. epidermidis = assay: MIC, S. epidermidis; assay type: cell-based; conditions: Staphylococcus epidermidis, MRSE, E-R
Protocol: as §3

M. luteus = assay: MIC, M. luteus; assay type: cell-based; conditions: Micrococcus luteus; M. luteus ATCC9341
Protocol: as §3

K. pneumoniae = assay: MIC, K. pneumoniae; assay type: cell-based; conditions: Klebsiella pneumoniae
Protocol: as §3

E. faecium = assay: MIC, E. faecium; assay type: cell-based; conditions: E. faecium Pen-R
Protocol: as §3

S. aureus [6] = assay: Microdilution MIC, S. aureus; assay type: cell-based
Protocol: as §3

E. faecalis = assay: MIC, E. faecalis; assay type: cell-based
Protocol: as §3

E. cloacae = assay: MIC, E. cloacae; assay type: cell-based; conditions: Enterobacter cloacae
Protocol: as §3

[7] = rifampicin-resistant S. aureus, read-out: MBC rifR-S. aureus
[8] = Table II, read-out: MBC E. coli
[9] = read-out: MIC E. coli*, Table II, mutant strain that has permeabilized cell wall

CCC/C(C)=C/C=C(\C)C(=O)c1c(O)cc(C(C)CC/C=C/NC(=O)OC)oc1=O (racemic) [MYXO A, (±)-Myxopyronin A]
Relative potency in the in vitro transcription assay using E. coli RNA polymerase (E. coli RNA polymerase): equally potent as the natural product mixtures | IC50 (E. coli RNA polymerase): 7.19 µM | IC50 (S. aureus RNAP): 24 µM | MBC (S. aureus [1]; read-out: MBC S. aureus): 15 µg/mL (≈ 35.9 µM) | MBC (S. aureus [1]; [7]): 15 µg/mL (≈ 35.9 µM) | MBC (E. coli [2]; read-out: MBC E. coli*): > 30 µg/mL | MBC (E. coli [2]; [8]): > 30 µg/mL | MIC (E. coli [3]; [9]): 8 µg/mL (≈ 19.2 µM) | IC50 (Human RNAP): > 144 µM

CNC(=O)[C@@H](C)[C@H]1C(=O)/C(=C(O)/C=C/C(C)=C/[C@@H](C)[C@H]2O[C@@]3(C)O[C@H](C=C[C@@]34CO4)[C@@H]2C)C(=O)N1[C@@H]1CC[C@H](O)[C@H](C)O1 [streptolydigin]
Growth of myxopyronin resistant S. aureus strain in the presence of the drug [4]: inhibits growth | Growth of rifampicin resistant S. aureus strain in the presence of the drug [4]: inhibits growth | Growth of streptolydigin-resistant S. aureus strain in the presence of the drug [4]: continues to grow

CO[C@H]1/C=C/O[C@@]2(C)Oc3c(C)c(O)c4c(O)c(c(/C=N/N5CCN(C)CC5)c(O)c4c3C2=O)NC(=O)/C(C)=C\C=C\[C@H](C)[C@H](O)[C@@H](C)[C@@H](O)[C@@H](C)[C@H](OC(C)=O)[C@@H]1C [rifampicin]
MIC ([5]; read-out: MIC against resistant strains, background statement b17): > 10 µM | MIC ([5]; read-out: MIC against rifampicin resistant strains, Example 11, b337): > 100 µM | MIC ([5]; read-out: MIC against susceptible strains, Example 11, b337): 10 µM (≈ 8.23 µg/mL) | MIC ([5]; read-out: MIC against susceptible strains, background statement b17): ~0.01 µM (≈ 0.00823 µg/mL) | Growth of myxopyronin resistant S. aureus strain in the presence of the drug [4]: inhibits growth | Growth of rifampicin resistant S. aureus strain in the presence of the drug [4]: continues to grow | Growth of streptolydigin-resistant S. aureus strain in the presence of the drug [4]: inhibited

CCCC/C(C)=C/C=C(\C)C(=O)c1c(O)cc(C(C)CC/C=C/NC(=O)OC)oc1=O (racemic) [MYXO B, (±)-myxopyronin B]
MIC (M. catarrhalis; M. catarrhalis beta lactamase negative): 0.5 µg/mL (≈ 1.16 µM) | MIC (M. catarrhalis; M. catarrhalis beta lactamase positive): 1 µg/mL (≈ 2.32 µM) | MIC (H. influenzae; ATCC49247, H. influenzae ATCC49247): 2 µg/mL (≈ 4.63 µM) | MIC (H. influenzae; H. influenzae non-typable): 8 µg/mL (≈ 18.5 µM) | Relative potency in the in vitro transcription assay using E. coli RNA polymerase (E. coli RNA polymerase): more potent molecule than A | IC50 (E. coli RNA polymerase): 1.85 µM | MIC (P. aeruginosa; P. aeruginosa ATCC27853): > 64 µg/mL | MIC (P. aeruginosa; P. aeruginosa, strain not named): > 64 µg/mL | MIC (S. pneumonia; S. pneumonia ATCC49619): 8 µg/mL (≈ 18.5 µM) | MIC (S. pneumonia; S. pneumonia Pen I (MIC 0.12)): 8 µg/mL (≈ 18.5 µM) | MIC (S. pneumonia; S. pneumonia Pen I (MIC 0.25)): 8 µg/mL (≈ 18.5 µM) | MIC (S. pneumonia; S. pneumonia Pen I (MIC 1.0)): 8 µg/mL (≈ 18.5 µM) | MIC (S. pneumonia; S. pneumonia Pen R (MIC 2.0)): 16 µg/mL (≈ 37.1 µM) | MIC (S. pneumonia; S. pneumonia Pen R (MIC 4.0)): 8 µg/mL (≈ 18.5 µM) | MIC (S. pneumonia; S. pneumonia Pen S (MIC <0.06)): 8 µg/mL (≈ 18.5 µM) | IC50 (S. aureus RNAP): 1.39 µM | MIC (S. epidermidis; CC-R): 1 µg/mL (≈ 2.32 µM) | MIC (S. epidermidis; CC-S): 4 µg/mL (≈ 9.27 µM) | MIC (M. luteus): 8 µg/mL (≈ 18.5 µM) | MBC (S. aureus [1]; read-out: MBC S. aureus): 0.4 µg/mL (≈ 0.927 µM) | MBC (S. aureus [1]; [7]): 0.4 µg/mL (≈ 0.927 µM) | MIC (K. pneumoniae): > 64 µg/mL | MIC (E. faecium; Vanco-R): > 64 µg/mL | MIC (E. faecium; Vanco-S): > 64 µg/mL | MIC (E. faecium; Enterococcus faecium, Vanco-R, read-out: MIC): 64 µg/mL (≈ 148 µM) | MIC (E. faecium; Enterococcus faecium, Vanco-S, read-out: MIC): 64 µg/mL (≈ 148 µM) | MBC (E. coli [2]; read-out: MBC E. coli*): 0.2 µg/mL (≈ 0.463 µM) | MBC (E. coli [2]; [8]): > 100 µg/mL | MIC (S. aureus [6]; S. aureus MRSA, E-S, CC-S): 1 µg/mL (≈ 2.32 µM) | MIC (S. aureus [6]; Staphylococcus aureus, ATCC25923, S. aureus ATCC25923, read-out: MIC): 1 µg/mL (≈ 2.32 µM) | MIC (S. aureus [6]; Staphylococcus aureus, ATCC29213, S. aureus ATCC29213, read-out: MIC): 1 µg/mL (≈ 2.32 µM) | MIC (S. aureus [6]; Staphylococcus aureus, MRSA, S. aureus MRSA, E-R, CC-S, read-out: MIC): 1 µg/mL (≈ 2.32 µM) | MIC (S. aureus [6]; Staphylococcus aureus, Table II, read-out: MIC S. aureus): 0.4 µg/mL (≈ 0.927 µM) | MIC (S. aureus [6]; Staphylococcus aureus, Table II, rifampicin-resistant S. aureus, read-out: MIC rifR-S. aureus): 0.2 µg/mL (≈ 0.463 µM) | Fold more potent cell-based (growth inhibitory) activity than myxopyronin A (S. aureus [6]; up to, over the bacteria of Table II): up to 75 fold | MIC (E. faecalis; E. faecalis Pen-S, Vanco-S): 16 µg/mL (≈ 37.1 µM) | MIC (E. faecalis; Enterococcus faecalis, ATCC29212, E. faecalis ATCC29212, read-out: MIC): 16 µg/mL (≈ 37.1 µM) | MIC (E. faecalis; Enterococcus faecalis, E. faecalis Pen-R, Vanco-S, read-out: MIC): 8 µg/mL (≈ 18.5 µM) | MIC (E. faecalis; Enterococcus faecalis, E. faecalis Pen-S, Vanco-S, read-out: MIC): 32 µg/mL (≈ 74.2 µM) | MIC (E. cloacae): > 64 µg/mL | MIC (E. coli [3]; ATCC25922, Table III, E. coli ATCC25922, read-out: MIC): > 64 µg/mL | MIC (E. coli [3]; Table III, E. coli parent (non-permeable), read-out: MIC): > 64 µg/mL | MIC (E. coli [3]; Table III, E. coli permeable, read-out: MIC): 1 µg/mL (≈ 2.32 µM) | MIC (E. coli [3]; [9]): 0.4 µg/mL (≈ 0.927 µM) | MIC (E. coli [3]; Table II, read-out: MIC E. coli): > 100 µg/mL | IC50 (Human RNAP): > 139 µM

— patent publication US6191288A, “Pyronin antibacterials, process and novel intermediates thereto” (Anadys Pharmaceuticals, Inc., priority 1999, dated 2001)
